Earlier results as cited in patent US20040166503A1, “Methods for gene expression profiling” (priority 2004, published 2004).

Experiments:
[1] = tested on: resistant HL60 human promyelocytic cell line; details: inhibition of glutathione synthesis by BSO
[2] = tested on: extracellular signal-regulated kinase (ERK); details: during TLK286 induced apoptosis
[3] = tested on: p38 kinase; details: during TLK286 induced apoptosis
[4] = tested on: bone marrow stem cells and peripheral white blood cell
[5] = tested on: cancer cell lines and tumors; details: wide variety of cancer cell lines and tumors
[6] = tested on: c-Jun N-terminal kinase (JNK); details: during TLK286 induced apoptosis
[7] = tested on: M7609 xenografts expressing different levels of GST P1-1; details: murine xenografts of M7609; responses positively correlated with GST P1-1 expression

In the case of `CCCCS(=N)(=O)CCC(N)C(=O)O` (stereo not shown) [BSO], the “effect on sensitivity of resistant cells to TLK286” value [1] is listed as “increases the sensitivity”.

In the case of `N[C@@H](CCC(=O)N[C@@H](CS(=O)(=O)CCOP(=O)(N(CCCl)CCCl)N(CCCl)CCCl)C(=O)N[C@@H](C(=O)O)c1ccccc1)C(=O)O` [TLK286, gamma-glutamyl-alpha-amino-beta(2-ethyl-N,N,N′,N-tetrakis(2-chloroethyl)phosphorodiamidate)-sulfonyl-propionyl-(R)-(−)phenylglycine], the ERK activation [2] is listed as “not”, the p38 kinase activation [3] is listed as “not” and the “myelosuppressive effect (toxicity)” value [4] is listed as “only mildly toxic”. The cytotoxicity [5] was “cytotoxic”, the JNK activation [6] was “activated” and the “antitumor activity in vivo” value [7] was “antitumor activity has also been observed”.
